Entries after “also recorded” stand apart in the source; their conditions may differ.
Tests used:
CD3+ T cells = assay: Annexin V/propidium iodide staining; format: cell-based; conditions: for cell death on splenocytes: propidium iodide/annexin V staining or cell cycle analysis; for necrotic, apoptotic, dead or live cells (Annexin V/PI): isolated CD3+ T cells, 25 μM and 50 μM
From the text: Cell-cycle flow cytometry with propidium iodide was used to corroborate the above results, and ensure the reduction in proliferation was not due to cell death. […] To further investigate whether the reduction of proliferation was due to cell death, Annexin V and propidium iodide staining were used to differentiate necrotic cells (propidium iodide+), apoptotic cells (annexin V+), dead cells (propidium iodide+ and annexin V+), and live cells (propidium iodide-annexin V−).
Cell cycle staining with propidium iodide (PI) and analysis by flow cytometry gives percentage of cells in apoptosis, G1, G2, and synthesis, and apoptosis. Following a membrane permeabilization, PI chelates to DNA and level of staining specifies the stage of the cell cycle (e.g., G2 phase will have twice the DNA and thus twice the PI signal as G1 phase, apoptotic cells contain less DNA than healthy cells and are identified by low PI staining). 1×10^6 splenocytes were used per sample, with four replicates per condition. Cells were collected into a tube with PBS and centrifuged (200 r.p.m. for 5 minutes). Pellet was resuspended in 500 μl PBS and 500 μl ice cold 100% ethanol was slowly added with gentle vortexing of sample. Cell suspension was stored at 4° C. for at least 2 hours (up to two weeks). Next, the suspension was centrifuged at 200 r.p.m. for 3 minutes, pellet was resuspended in PBS and suspension was centrifuged at 200 r.p.m for 10 minutes at 4° C. Pellet was resuspended in 350 μl of PI staining buffer (50 μg/ml propidium iodide, 0.1% TritonX100, 0.2 mg Dnase free Rnase A in PBS) and incubated for 30-45 minutes at room temperature. Suspension was transferred to a FACs tube and analyzed. Annexin V/Propidium iodide staining was detected using the Annexin V FITC apoptosis detection kit (BD Biosciences, #556547), which was performed according to manufacturer's instructions.

[1] = tested on: intact 4-sulfated chondroitin sulfate sidechains (2H6); assay: Western blot of astrocyte conditioned medium, 2H6 (intact chondroitin-4-sulfate); format: cell-based, mouse; conditions: astrocyte conditioned media
From the text: Astrocytes are major producers of CSPGs following injury in the CNS [Jones, L. L., Margolis, R. U. & Tuszynski, M. H. The chondroitin sulfate proteoglycans neurocan, brevican, phosphacan, and versican are differentially regulated following spinal cord injury. Experimental Neurology 182, 399-411 (2003); Tang, X., Davies, J. E. & Davies, S. J. Changes in distribution, cell associations, and protein expression levels of NG2, neurocan, phosphacan, brevican, versican V2, and tenascin-C during acute to chronic maturation of spinal cord scar tissue. […] The Journal of neuroscience: the official journal of the Society for Neuroscience 20, 2427-2438 (2000); McKeon, R. J., Jurynec, M. J. & Buck, C. R. The chondroitin sulfate proteoglycans neurocan and phosphacan are expressed by reactive astrocytes in the chronic CNS glial scar. The Journal of neuroscience: the official journal of the Society for Neuroscience 19, 10778-10788 (1999); Haas, C. A., Rauch, U., Thon, N., Merten, T. & Deller, T. Entorhinal cortex lesion in adult rats induces the expression of the neuronal chondroitin sulfate proteoglycan neurocan in reactive astrocytes. The Journal of neuroscience: the official journal of the Society for Neuroscience 19, 9953-9963 (1999)] and they may help drive progression of disability in a model of progressive MS [Mayo, L. et al. Regulation of astrocyte activation by glycolipids drives chronic CNS inflammation. Nature medicine 20, 1147-1156 (2014)]. Therefore astrocytes were used as model cells to determine the ability of the sugar analogs to reduce synthesis of CSPGs. Since CSPGs are exported out of cells, the conditioned media from analog-treated astrocytes were probed by Western blots (FIG. 4). We used antibodies to both the stubs of chondroitin sulfate GAGs attached to the core protein (MAB2030) and to intact 4-sulfated chondroitin sulfate sidechains (2H6) (FIG. 4a). Particularly, we used the 2H6 antibody to label intact 4-sulfated chondroitin sulfate sidechains, and the MAB2030 antibody to detect the stubs of chondroitin sulfate GAGs attached to the core protein. […] 1998, 160 (8), 3812-3819. Poole Poole C. A.; Glant T. T.; Schofield J. R.; Chondrons from articular cartilage. (IV). Immunolocalization of proteoglycan epitopes in isolated canine tibial chondrons. J. Histochem. Cytochem. 1991, 39 (9), 1175-1187].
Astrocytes were plated in uncoated 6-well plates (3 replicate wells per treatment) at 1×10^6 cells/well in mixed glial media, and incubated at 5% CO2 and 37° C. Astrocytes were treated with compounds at 50 μM in AIM-V media for 48 hours. Media was pooled from 3 replicate wells in 15 ml 100K cutoff centricon tubes (EMD Millipore, #UFC905008), which were spun on an ultracentrifuge at 5000× g for 2 cycles of 10 minutes each. […] Total protein was quantified using a Bradford assay. […]

| Structure (SMILES) | cell death on splenocytes (CD3+ T cells) | total chondroitin sulfate side chains (2H6) [1] | necrotic, apoptotic, dead or live cells (Annexin V/PI) (CD3+ T cells) |
| --- | --- | --- | --- |
| CCCC(=O)OC1OC(COC(C)=O)[C@@H](F)[C@H](OC(C)=O)C1NC(C)=O (mixture of isomers) [Compound 8, 2-Acetamido-3,6-di-O-acetyl-1-O-butanoyl-2,4-dideoxy-4-fluoro-α/β-D-glucopyranose] | did not show detectable cell death | – | – |
| CC(=O)NC1C(O)OC(COC(C)=O)[C@@H](F)[C@@H]1OC(C)=O (mixture of isomers) [Compound 10] | did not show detectable cell death | showed evidence of reducing total chondroitin sulfate side chains | – |
| CC(=O)NC1C(OC(C)=O)OC(COC(C)=O)C(F)(F)[C@@H]1OC(C)=O (mixture of isomers) [Compound 16, 2-Acetamido-1,3,6-tri-O-acetyl-2,4-dideoxy-4,4-difluoro-α/β-D-xylo-hexopyranose] | did not show detectable cell death | showed evidence of reducing total chondroitin sulfate side chains | no evidence of causing non-specific cell apoptosis or necrosis; also recorded: did not display notable changes in their proportion of necrotic, apoptotic, dead, or live cells |
| CC(=O)NC1C(OC(C)=O)OC(COC(C)=O)[C@@H](F)C1OC(C)=O (stereo partly shown) [Compound 3, reference compound] | did not show detectable cell death | showed evidence of reducing total chondroitin sulfate side chains | no evidence of causing non-specific cell apoptosis or necrosis; also recorded: did not display notable changes in their proportion of necrotic, apoptotic, dead, or live cells |
| CCC(=O)OC1OC(COC(C)=O)[C@@H](F)[C@H](OC(C)=O)C1NC(C)=O (stereo partly drawn) [Compound 7, 2-Acetamido-3,6-di-O-acetyl-2,4-dideoxy-4-fluoro-1-O-propanoyl-α/β-D-glucopyranose] | – | showed evidence of reducing total chondroitin sulfate side chains | – |

From US12600740B2, “Fluorinated N-acetyl glucosamine analogs and xylose derivatives” (UTI Limited Partnership, priority 2018, dated 2026)
